From ChEMBL document CHEMBL5608251, “Virtual Screening and Molecular Docking: Discovering Novel METTL3 Inhibitors” (ACS Med Chem Lett, 2024)

Legend:
[1] = biological target: METTL3/METTL14 (Homo sapiens) (UniProt Q86U44+Q9HCE5); experiment: Inhibition of METTL3/METTL14 (unknown origin) using SAM as substrate at 25 uM incubated for 360 mins by luminescence based assay relative to control; type: protein-complex assay
PC-9 = experiment: Antiproliferative activity against human PC-9 cells assessed as inhibition of cell growth incubated for 72 hrs by CCK-8 assay; type: functional, cell-based; conditions: PC-9, 72 h
NCI-H1975 = experiment: Antiproliferative activity against human NCI-H1975 cells assessed as inhibition of cell growth incubated for 72 hrs by CCK-8 assay; type: functional, cell-based; conditions: NCI-H1975, 72 h
METTL3/METTL14 = METTL3/METTL14 (Homo sapiens, UniProt Q86U44); experiment: Inhibition of recombinant METTL3/METTL14 (unknown origin) by radioactivity based assay; type: protein-complex assay
Chain of METTL3/METTL14 (Q86U44 whole entry): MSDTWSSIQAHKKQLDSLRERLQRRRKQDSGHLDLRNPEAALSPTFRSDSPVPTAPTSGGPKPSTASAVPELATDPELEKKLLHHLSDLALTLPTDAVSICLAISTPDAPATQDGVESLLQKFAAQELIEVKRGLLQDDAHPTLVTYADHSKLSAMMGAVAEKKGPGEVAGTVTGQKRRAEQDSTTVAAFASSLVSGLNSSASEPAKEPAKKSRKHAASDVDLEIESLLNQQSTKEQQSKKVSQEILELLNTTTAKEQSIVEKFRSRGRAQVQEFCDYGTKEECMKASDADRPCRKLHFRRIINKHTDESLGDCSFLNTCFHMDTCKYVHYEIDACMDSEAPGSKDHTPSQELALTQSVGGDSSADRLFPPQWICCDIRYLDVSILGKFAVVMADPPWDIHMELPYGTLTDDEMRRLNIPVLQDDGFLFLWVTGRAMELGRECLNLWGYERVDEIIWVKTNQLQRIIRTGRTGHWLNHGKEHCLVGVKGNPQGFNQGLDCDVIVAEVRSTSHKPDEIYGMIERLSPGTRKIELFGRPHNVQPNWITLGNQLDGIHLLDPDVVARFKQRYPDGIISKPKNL
Chain of METTL3/METTL14 (Q9HCE5 whole entry, further chain): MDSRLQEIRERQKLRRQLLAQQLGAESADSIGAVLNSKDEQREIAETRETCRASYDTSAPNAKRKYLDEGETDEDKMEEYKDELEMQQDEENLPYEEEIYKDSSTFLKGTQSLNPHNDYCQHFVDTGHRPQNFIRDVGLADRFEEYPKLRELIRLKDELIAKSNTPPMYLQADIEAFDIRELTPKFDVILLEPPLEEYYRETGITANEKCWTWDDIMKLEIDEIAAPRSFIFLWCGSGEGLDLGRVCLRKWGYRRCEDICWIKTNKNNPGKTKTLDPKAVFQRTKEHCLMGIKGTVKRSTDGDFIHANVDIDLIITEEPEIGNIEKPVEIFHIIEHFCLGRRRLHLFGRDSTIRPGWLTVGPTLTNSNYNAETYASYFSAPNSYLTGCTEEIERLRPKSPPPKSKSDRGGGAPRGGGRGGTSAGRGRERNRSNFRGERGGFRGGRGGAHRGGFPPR

Row | Compound | inhibition [1] [%] | further results
1 | COc1ccc(NC(=O)CCn2ccc(=O)[nH]c2=O)c(O)c1 | 30.5 | 
2 | CCn1c(SCC(=O)Nc2ccc(C)c(F)c2)nc2c3cc(OC)ccc3n(C)c2c1=O | 32.1 | 
3 | CC(=O)c1ccc(NC(=O)CSc2ncc(CO)n2Cc2ccc(F)cc2)cc1 | 3.39 | 
4 | COc1ccc(-c2nc(C[S+]([O-])CC(=O)NCc3ccco3)c(C)o2)cc1 (stereo not given) | 32.5 | 
5 | COc1ccc(C(=O)Nc2cccc(OCc3cc(=O)n4ccc(C)cc4c3)c2)cc1OC | 25.1 | 
6 | COc1ccc(NC(=O)CCn2ccc(=O)[nH]c2=O)cc1 | 22.4 | 
7 | CCOC(=O)CC(=O)CSc1nc2c(sc(=S)n2-c2ccc(C(=O)OCC)cc2)c2nc3ccccc3n12 | 46.2 | IC50 (PC-9): 213 µM; IC50 (NCI-H1975): 197 µM
8 | CNC(=O)Cn1c(CO)cnc1SCC(=O)Nc1ccc(C(C)=O)cc1 | 31.1 | 
9 | O=C(CCSc1nc(-c2ccco2)cc(C(F)(F)F)n1)NCc1ccco1 | 36.3 | 
10 | COc1ccc(NC(=O)Cn2cc(C(=O)c3ccc(C)cc3)c(=O)c3cc(OC)c(OC)cc32)cc1OC | 24.1 | 
11 | Nc1ncnc2c1ncn2[C@@H]1O[C@H](C[C@@H](N)CC[C@H](N)C(=O)O)[C@@H](O)[C@H]1O [SINEFUNGIN] |  | IC50 (METTL3/METTL14): 2.36 µM
12 | O=C1c2ccc(Oc3cccc(Oc4ccc5c(c4)C(=O)N(c4ccc(O)cc4)C5=O)c3)cc2C(=O)N1c1ccc(O)cc1 | 65.6 | IC50 (PC-9): 216 µM; IC50 (NCI-H1975): 180 µM
13 | O=C(CCCn1c(SCC(=O)Nc2ccc(F)cc2)nc2c(sc3ccccc32)c1=O)NCCO | 6.31 | 
14 | O=C(CNC(=O)c1ccco1)N/N=C/c1cc(Br)cc(Br)c1OC(=O)c1cccc(F)c1 | 35.3 | 
15 | CC(=O)Nc1ccc(C)cc1NC(=O)CCC1COc2ccccc2O1 (stereo not given) | 38.9 | 
16 | CCn1c(N2CCCC(C(=O)Nc3ccc4[nH]c(=O)[nH]c4c3)C2)cc(=O)n(C)c1=O (stereo not given) | 36.7 | 
